Where a name gives a salt, the structure may show the parent alone.
How the values were obtained:
H9c2 myoblasts [1] = test: Effect of antioxidants on muscle differentiation (morphology); type: cell-based, rat; details: 5 days in DM; 0.4 mM DFOM, 2000 units/ml catalase, 10 mM Tiron
Procedure: H9c2 myoblasts were cultured for 5 days in DM containing 0.4 mM of DFOM, 2000 units/ml of catalase, 10 mM of Tiron (4,5-dihydroxy-1,3-benzene-disulfonic acid) to induce differentiation, during which morphological changes were observed. The control is the myoblasts which were induced to differentiate in the absence of […].

[2] = tested on: H9c2 rat cardiac myoblasts; test: Morphological observation of muscle differentiation of myoblasts in DM; type: cell-based; details: 72 hours in DM
Procedure: As a control, myoblasts were cultured in the absence of the drugs. Before use, the myoblasts were cultured to a cell confluency of about 70%.

myogenin and MRF4 = test: Western blot of myogenic markers myogenin and MRF4; type: cell-based, rat
Procedure: In addition, the protein expression levels of the myogenin and MRF4, early and late myogenic markers, were determined by Western blot analysis. To this end, myoblast extracts treated with the drugs were separated on SDS-PAGE and transferred onto a nitrocellulose membrane which was then blocked and reacted with predetermined primary antibodies (polyclonal myogenic antibody and polyclonal MRF4 antibody (Santa Cruz, Calif., USA) and then with a secondary antibody (anti-rabbit IgG-HRP conjugate with a chemiluminescent reactive enzyme able to detect the primary antibodies) (Santa Cruz, Calif., USA). Finally, the specimens were detected by enhanced ECL-plus chemiluminescence (Amersham Pharmacia Biotech, Piscataway, N.J., USA). Non-myogenic β-actin protein was used as a loading control.

H9c2 myoblasts [3] = test: Apoptosis by in-situ TUNEL assay and DNA fragmentation analysis; type: cell-based, rat; details: 72 hours in DM
Procedure: TUNEL analysis was performed using ApopTag Flurescein In situ Apoptosis Detection kit (Intergen, Purchase, N.Y.). The results are given in FIG. 2c where arrows indicate TUNEL positive cells.
Once cells undergo apoptosis, the DNA is digested into fragments diferring by 180-200 bp by endonuclease. […] DNA fragmentation aiming to identify the DNA laddering pattern was performed as follows. […] The cell lysates thus obtained were treated with 50 μg/ml RNase A at 37° C. for 2 hours and then with 500 μg/ml proteinase K at 55° C. for 2 hours. DNA was extracted by a phenol/chloroform method and precipitated in 70% (v/v) isopropanol. After being centrifuged at 15,000 rpm for 15 min, the precipitates were dissolved in a TE buffer (10 mM Tris-HCl (pH 8.0), 1 mM EDTA).

Bax [4] = test: Western blot of apoptosis-accelerating protein Bax; type: cell-based, rat; details: DM; 1-10 μM CsA, 9 μM FK506, 200 nM ascomycin
Text: The results are shown in the upper part of FIG. 6a. β-actin is used as a loading control.
After being scanned, the Western blot analysis bands were quantified by Bio-Rad imaging densitometer. The results are shown in the lower part of FIG. 6a. In the histograms, the bars express the Bax levels of the samples as mean±standard deviation values of the fold numbers compared to those of the control.

[5] = tested on: mitochondria membrane potential; test: Mitochondria membrane potential by DiOC6[3] flow cytometry; type: cell-based; details: 48 hours in DM; 1-10 μM CsA, 9 μM FK506, 200 nM ascomycin
Procedure: H9c2 myoblasts cultured in PM and in DM in the absence of the drugs were measured for Δψm (control). In the FACS plots of FIG. 6b, the second peaks and the first peaks represent viable cells with high DiOC6[3] contents and dead cells with DiOC6[3]. Numerals mean percentages of the myoblasts with decreased Δψm.

H9c2 cardiac myoblasts = test: Cell cycle and apoptosis (sub-G0/G1) by propidium iodide FACS; type: cell-based, rat; details: DM 72 h
Text: Using 20,000 cells obtained from each of the cultures, measurements were made of percentages of cells in each phase of the cell cycle (G0/G1, S and G2/M) and percentages of cells in sub-G0/G1 aliquots (that is, apoptotic cells).

transplanted myoblasts = details: cited from earlier work
calcineurin = test: Calcineurin phosphatase activity in H9c2 myoblasts (BioMol Quantizyme assay); details: for influence on basal calcineurin phosphatase activity / concentration at which maximal inhibitory effect on the increased calcineurin phosphatase activity was observed: H9c2 myoblasts; for inhibition of calcineurin phosphatase activity induced during muscle differentiation: H9c2 myoblasts in DM; for concentration at which maximal inhibitory effect on the increased calcineurin phosphatase activity was observed: activity induced by DM (2 days) and PE (12 h)
ROS [6] = test: Cellular ROS level by DCF flow cytometry (FACS); type: cell-based, rat; details: 10 μM, 24 hours in DM
Procedure: H9c2 myoblasts were cultured for 24 hours in PM and in DM, and then in the presence of 10 μM DCF (2′,7′-dichlorofluorescein). After being harvested, the cells were washed once with PBS and resuspended in […] of PBS. The cellular levels of ROS generated were measured by flow cytometry (FACS), there values were regarded as controls. […] ROS levels were analyzed by FACS. […] ROS levels were measure as the above. The results are given in FIG. 5a where numerals indicate mean±standard deviation values of the ROS levels in the cells.

ROS [7] = test: ROS content of CypA-transfected cells in DM with or without CsA (DCF FACS); type: cell-based, rat; details: DM containing no CsA or 10 μM CsA
Procedure: These transfected cells were grown at 37° C. in the presence of 10 μM DCF, washed with PBS, resuspended in […] of PBS, and measured for ROS content by FACS analysis.

H9c2 myoblasts [8] = test: Survival and morphology of CypA-transfected cells exposed to CsA or H2O2; type: cell-based, rat; details: 10 μM CsA 72 h in DM; for protection from CsA- or H2O2-induced apoptotic cell death: 300 μM H2O2 12 h in DMEM/F-12
Procedure: Separately, the cells were exposed to 300 μM H2O2 for 12 hours in DMEM/F-12. […] Here, % cell survival is obtained by dividing […].

Bax [9] = test: Bax expression in CypA-transfected cells exposed to CsA or H2O2 (Western blot); type: cell-based, rat; details: exposed to CsA; similar results with H2O2
Text: In the histograms of FIG. 7f, bars express the Bax levels in the samples as percentages compared to the mock-transfected cells.

H9c2 myoblasts [10] = test: Muscle differentiation of CypA-transfected cells in DM (morphology, time required); type: cell-based, rat; details: for muscle differentiation in DM: transfected H9c2 cells, no CsA; for time required for muscle differentiation: transfected H9c2 cells in DM, mock control 4-5 days
Procedure: To determine the role of CypA, that is, PPIase, in muscle differentiation, time periods required for the complete differentiation of the three CypA gene-transfected cells, CypA/wt, CypA/W121F and CypA/R55A were measured while they were cultured in DM. In addition, their morphological changes were observed when they were completely differentiated.

PPIase activity = details: cited from earlier work

## O=S(=O)(O)c1cc(O)c(O)c(S(=O)(=O)O)c1 [Tiron, 4,5-dihydroxy-1,3-benzene-disulfonic acid]
H9c2 myoblasts [1]
  effect on muscle differentiation: blocking activity

## C=CC[C@@H]1/C=C(\C)C[C@H](C)C[C@H](OC)[C@H]2O[C@@](O)(C(=O)C(=O)N3CCCC[C@H]3C(=O)O[C@H](/C(C)=C/[C@@H]3CC[C@@H](O)[C@H](OC)C3)[C@H](C)[C@@H](O)CC1=O)[C@H](C)C[C@@H]2OC [FK506, tacrolimus]
[2]
  morphological changes during muscle differentiation: no morphological differences
Myogenin and MRF4; FK506, ascomycin in DM
  myogenin and MRF4 protein expression: no influence
H9c2 myoblasts [3]
  apoptosis (TUNEL, DNA laddering): not related to apoptosis
Bax [4]
  Bax expression: do not affect
[5]
  mitochondria membrane potential (Δψm): not observed
H9c2 cardiac myoblasts; FK506 9 μM
  % Apoptosis (sub-G0/G1 fraction): 11 ± 3%
  % G0/G1: 83 ± 5%
  % G2/M: 4 ± 1%
  % S: 4 ± 1%
Transplanted myoblasts; clinical trials and animal model studies
  success rate of myoblast transplantation: ≥ 95%
calcineurin
  influence on basal calcineurin phosphatase activity: no influence
  inhibition of calcineurin phosphatase activity induced during muscle differentiation: completely inhibit
  concentration at which maximal inhibitory effect on the increased calcineurin phosphatase activity was observed: 1 µM

## CC(=O)N(O)CCCCCNC(=O)CCC(=O)N(O)CCCCCNC(=O)CCC(=O)N(O)CCCCCN [DFOM, deferoxamine mesylate]
H9c2 myoblasts [1]
  effect on muscle differentiation: blocking activity

## C/C=C/C[C@@H](C)[C@@H](O)[C@H]1C(=O)N[C@@H](CC)C(=O)N(C)CC(=O)N(C)[C@@H]([C@@H](C)CC)C(=O)N[C@@H](C(C)C)C(=O)N(C)[C@@H](CC(C)C)C(=O)N[C@@H](C)C(=O)N[C@H](C)C(=O)N(C)[C@@H](CC(C)C)C(=O)N(C)[C@@H](CC(C)C)C(=O)N(C)[C@@H](C(C)C)C(=O)N1C [SDZ NIM811]
[2]
  morphological changes during muscle differentiation: blocks the myoblast differentiation
Myogenin and MRF4; 1 μM, DM
  myogenin and MRF4 protein expression: partial suppression
Myogenin and MRF4; concentrations higher than 1 μM, DM
  myogenin and MRF4 protein expression: complete suppression
H9c2 myoblasts [3]
  apoptosis (TUNEL, DNA laddering): dose dependent
ROS [6]
  ROS level (mean±standard deviation): 634±20

## CypA/R55A: mutated rat CypA with alanine instead of arginine at position 55, transfected into H9c2 myoblasts
ROS [7]
  ROS level: significantly increased ROS generation
H9c2 myoblasts [8]
  protection from CsA- or H2O2-induced apoptotic cell death: increases ROS-induced apoptosis
Bax [9]
  Bax expression: increased Bax expression
H9c2 myoblasts [10]
  muscle differentiation in DM: no traces of differentiation
PPIase activity
  PPIase activity compared to the wild type protein: one thousandth

## CC[C@@H]1/C=C(\C)C[C@H](C)C[C@H](OC)[C@H]2O[C@@](O)(C(=O)C(=O)N3CCCC[C@H]3C(=O)O[C@H](/C(C)=C/[C@@H]3CC[C@@H](O)[C@H](OC)C3)[C@H](C)[C@@H](O)CC1=O)[C@H](C)C[C@@H]2OC [ascomycin]
[2]
  morphological changes during muscle differentiation: no morphological differences
Myogenin and MRF4; FK506, ascomycin in DM
  myogenin and MRF4 protein expression: no influence
H9c2 myoblasts [3]
  apoptosis (TUNEL, DNA laddering): not related to apoptosis
Bax [4]
  Bax expression: do not affect
[5]
  mitochondria membrane potential (Δψm): not observed
H9c2 cardiac myoblasts; Ascomycin 200 nM
  % Apoptosis (sub-G0/G1 fraction): 10 ± 3%
  % G0/G1: 85 ± 3%
  % G2/M: 4 ± 1%
  % S: 2 ± 1%
calcineurin
  influence on basal calcineurin phosphatase activity: no influence
  inhibition of calcineurin phosphatase activity induced during muscle differentiation: completely inhibit
  concentration at which maximal inhibitory effect on the increased calcineurin phosphatase activity was observed: 0.02 µM

## CypA/wt: wild type rat brain CypA gene transfected into and overexpressed in H9c2 rat cardiac myoblasts
ROS [7]
  ROS level: reduced the ROS level
H9c2 myoblasts [8]
  protection from differentiation blockage: not from differentiation blockage
  protection from CsA- or H2O2-induced apoptotic cell death: protect cells
Bax [9]
  Bax expression: inhibited Bax expression
H9c2 myoblasts [10]
  time required for muscle differentiation: 8 to 9 days
  muscle differentiation in DM: undergo muscle differentiation

## O=P1(N(CCCl)CCCl)NCCCO1 (stereo not shown) [cyclophosphamide]
Transplanted myoblasts; in vivo
  success of allogenic myoblast transplantation: did not increase the survival

## CypA/W121F: mutated rat CypA with phenylalanine instead of tryptophan at position 121, transfected into H9c2 myoblasts
ROS [7]
  ROS level: removed a greater amount of ROS than did CypA/wt
H9c2 myoblasts [8]
  protection from differentiation blockage: not from differentiation blockage
  protection from CsA- or H2O2-induced apoptotic cell death: protect cells
Bax [9]
  Bax expression: inhibited Bax expression
H9c2 myoblasts [10]
  time required for muscle differentiation: 14 to 15 days
  muscle differentiation in DM: undergo muscle differentiation
PPIase activity
  PPIase activity compared to the wild type protein: half

B1: catalase: antioxidant enzyme purchased from Sigma (protein, UniProt P00432 2-527, looked up)
Catalase: ADNRDPASDQMKHWKEQRAAQKPDVLTTGGGNPVGDKLNSLTVGPRGPLLVQDVVFTDEMAHFDRERIPERVVHAKGAGAFGYFEVTHDITRYSKAKVFEHIGKRTPIAVRFSTVAGESGSADTVRDPRGFAVKFYTEDGNWDLVGNNTPIFFIRDALLFPSFIHSQKRNPQTHLKDPDMVWDFWSLRPESLHQVSFLFSDRGIPDGHRHMNGYGSHTFKLVNANGEAVYCKFHYKTDQGIKNLSVEDAARLAHEDPDYGLRDLFNAIATGNYPSWTLYIQVMTFSEAEIFPFNPFDLTKVWPHGDYPLIPVGKLVLNRNPVNYFAEVEQLAFDPSNMPPGIEPSPDKMLQGRLFAYPDTHRHRLGPNYLQIPVNCPYRARVANYQRDGPMCMMDNQGGAPNYYPNSFSAPEHQPSALEHRTHFSGDVQRFNSANDDNVTQVRTFYLKVLNEEQRKRLCENIAGHLKDAQLFIQKKAVKNFSDVHPEYGSRIQALLDKYNEEKPKNAVHTYVQHGSHLSAREKANL
H9c2 myoblasts [1]
  effect on muscle differentiation: blocking activity
